Earlier results as cited in patent US10413588B2, “Probiotic function of human intelectin” (Wisconsin Alumni Research Foundation, priority 2015, dated 2019).

Molecular target: hIntL-1 (Homo sapiens, UniProt Q8WWA0)
Conditions: reported by Tsuji et al., 2001; read-out: apparent KD / apparent affinity for hIntL-1

Chain of hIntL-1 (Q8WWA0 19-298): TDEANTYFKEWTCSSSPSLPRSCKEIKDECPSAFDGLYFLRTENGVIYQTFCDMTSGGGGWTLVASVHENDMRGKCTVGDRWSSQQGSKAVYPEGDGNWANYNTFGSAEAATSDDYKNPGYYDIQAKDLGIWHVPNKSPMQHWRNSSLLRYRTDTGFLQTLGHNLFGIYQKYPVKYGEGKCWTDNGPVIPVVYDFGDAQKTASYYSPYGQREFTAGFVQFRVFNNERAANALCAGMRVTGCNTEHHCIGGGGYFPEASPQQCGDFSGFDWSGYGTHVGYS

Kd: 5 mM
SMILES: O=C[C@H](O)[C@H](O)[C@H](O)CO [D-ribose]
